Assay results taken from PubChem BioAssay (NCI).
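Following 48 hours of exposure in 96-well plates, responses at five concentrations were used to interpolate endpoints linearly. Abbreviation: GI50, concentration required for 50% inhibition of growth. At the TGI there is no net growth.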

What was measured:
Assay in all cases: NCI tumour cell line growth inhibition, 48 h
[1] = system: PC-3 prostate
[2] = system: UACC-62 melanoma
[3] = system: OVCAR-3 ovarian
[4] = system: MCF7 breast
[5] = system: RXF 393 renal
[6] = system: HCT-116 colon
[7] = system: MOLT-4 leukemia
[8] = system: CCRF-CEM leukemia
[9] = system: SW-620 colon
[10] = system: RPMI-8226 leukemia
[11] = system: NCI-H522 lung
[12] = system: T-47D breast
[13] = system: SK-MEL-28 melanoma
[14] = system: HT29 colon
[15] = system: A498 renal
[16] = system: SK-MEL-5 melanoma
[17] = system: IGROV1 ovarian
[18] = system: K-562 leukemia
[19] = system: A549 NSCLC
[20] = system: SK-MEL-2 melanoma
[21] = system: NCI-H226 lung
[22] = system: DU-145 prostate
[23] = system: HCT-15 colon
[24] = system: UO-31 renal
[25] = system: OVCAR-5 ovarian
[26] = system: SNB-75 CNS
[27] = system: MALME-3M melanoma
[28] = system: U251 CNS
[29] = system: HCC-2998 colon
[30] = system: HOP-62 NSCLC
[31] = system: NCI-H23 lung
[32] = system: NCI-H460 lung
[33] = system: LOX IMVI melanoma
[34] = system: HS 578T breast
[35] = system: MDA-MB-231 breast
[36] = system: SF-268 CNS
[37] = system: OVCAR-8 ovarian
[38] = system: KM12 colon
[39] = system: OVCAR-4 ovarian
[40] = system: SN12C renal
[41] = system: HOP-92 NSCLC
[42] = system: NCI/ADR-RES ovarian
[43] = system: UACC-257 melanoma
[44] = system: CAKI-1 renal
[45] = system: M14 melanoma
[46] = system: MDA-MB-435
[47] = system: SF-539 CNS
[48] = system: BT-549 breast
[49] = system: HL-60(TB) leukemia
[50] = system: 786-0 renal
[51] = system: TK-10 renal
[52] = system: SR leukemia
[53] = system: COLO 205 colon
[54] = system: EKVX NSCLC
[55] = system: SNB-19 CNS
[56] = system: ACHN renal
[57] = system: SF-295 CNS

Question: How did the GI50 [1] turn out when `CCN1C(=O)N(c2ccccc2)C2NC(=S)N(/N=C/C=C/c3ccccc3OC)C21` (stereo not drawn) was run?
Answer: 111 nM

Question: What about the TGI [1] of the same compound?
Answer: > 89300 nM

Question: What about the GI50 [2] of the same compound?
Answer: 69.8 nM

Question: And the TGI [2]?
Answer: > 100000 nM

Question: And the GI50 [3]?
Answer: 77.8 nM

Question: And the TGI [3]?
Answer: 221 nM

Question: And the GI50 [4]?
Answer: 94.2 nM

Question: And the TGI [4]?
Answer: > 64300 nM

Question: And the GI50 [5]?
Answer: 916 nM

Question: And the TGI [5]?
Answer: > 100000 nM

Question: And the GI50 [6]?
Answer: 105 nM

Question: What about the TGI [6] of the same compound?
Answer: > 32700 nM

Question: And the GI50 [7]?
Answer: 128 nM

Question: What about the TGI [7] of the same compound?
Answer: > 100000 nM

Question: And the GI50 [8]?
Answer: 111 nM

Question: What about the TGI [8] of the same compound?
Answer: > 38500 nM

Question: What about the GI50 [9] of the same compound?
Answer: 125 nM

Question: What about the TGI [9] of the same compound?
Answer: > 100000 nM

Question: What about the GI50 [10] of the same compound?
Answer: 126 nM

Question: What about the TGI [10] of the same compound?
Answer: 14200 nM

Question: And the GI50 [11]?
Answer: 40.9 nM

Question: What about the TGI [11] of the same compound?
Answer: 189 nM

Question: And the GI50 [12]?
Answer: 4120 nM

Question: And the TGI [12]?
Answer: > 100000 nM

Question: What about the GI50 [13] of the same compound?
Answer: 4730 nM

Question: And the TGI [13]?
Answer: > 100000 nM

Question: What about the GI50 [14] of the same compound?
Answer: 111 nM

Question: What about the TGI [14] of the same compound?
Answer: > 100000 nM

Question: What about the GI50 [15] of the same compound?
Answer: 31.1 nM

Question: And the TGI [15]?
Answer: 653 nM

Question: What about the GI50 [16] of the same compound?
Answer: 99 nM

Question: And the TGI [16]?
Answer: 607 nM

Question: And the GI50 [17]?
Answer: 136 nM

Question: What about the TGI [17] of the same compound?
Answer: 10800 nM

Question: What about the GI50 [18] of the same compound?
Answer: 66.2 nM

Question: And the TGI [18]?
Answer: > 100000 nM

Question: And the GI50 [19]?
Answer: 121 nM

Question: And the TGI [19]?
Answer: > 100000 nM

Question: What about the GI50 [20] of the same compound?
Answer: 166 nM

Question: And the TGI [20]?
Answer: > 76200 nM

Question: And the GI50 [21]?
Answer: 300 nM

Question: What about the TGI [21] of the same compound?
Answer: > 40000 nM

Question: And the GI50 [22]?
Answer: 115 nM

Question: What about the TGI [22] of the same compound?
Answer: > 34400 nM

Question: And the GI50 [23]?
Answer: 102 nM

Question: What about the TGI [23] of the same compound?
Answer: > 100000 nM

Question: What about the GI50 [24] of the same compound?
Answer: 486 nM

Question: And the TGI [24]?
Answer: > 100000 nM

Question: What about the GI50 [25] of the same compound?
Answer: 170 nM

Question: What about the TGI [25] of the same compound?
Answer: > 86200 nM

Question: And the GI50 [26]?
Answer: 38.3 nM

Question: What about the TGI [26] of the same compound?
Answer: > 41400 nM

Question: What about the GI50 [27] of the same compound?
Answer: 722 nM

Question: What about the TGI [27] of the same compound?
Answer: > 100000 nM

Question: And the GI50 [28]?
Answer: 106 nM

Question: And the TGI [28]?
Answer: > 43800 nM

Question: And the GI50 [29]?
Answer: 111 nM

Question: And the TGI [29]?
Answer: > 100000 nM

Question: And the GI50 [30]?
Answer: 127 nM

Question: And the TGI [30]?
Answer: > 58500 nM

Question: And the GI50 [31]?
Answer: 174 nM

Question: And the TGI [31]?
Answer: > 61600 nM

Question: What about the GI50 [32] of the same compound?
Answer: 111 nM

Question: And the TGI [32]?
Answer: > 36200 nM

Question: What about the GI50 [33] of the same compound?
Answer: 109 nM

Question: What about the TGI [33] of the same compound?
Answer: > 69500 nM

Question: What about the GI50 [34] of the same compound?
Answer: 85.8 nM

Question: What about the TGI [34] of the same compound?
Answer: > 100000 nM

Question: What about the GI50 [35] of the same compound?
Answer: 92.1 nM

Question: And the TGI [35]?
Answer: 5130 nM

Question: What about the GI50 [36] of the same compound?
Answer: 195 nM

Question: What about the TGI [36] of the same compound?
Answer: > 100000 nM

Question: And the GI50 [37]?
Answer: 118 nM

Question: And the TGI [37]?
Answer: > 84300 nM

Question: And the GI50 [38]?
Answer: 101 nM

Question: And the TGI [38]?
Answer: > 36100 nM

Question: What about the GI50 [39] of the same compound?
Answer: 263 nM

Question: What about the TGI [39] of the same compound?
Answer: > 67000 nM

Question: What about the GI50 [40] of the same compound?
Answer: 139 nM

Question: And the TGI [40]?
Answer: > 42200 nM

Question: What about the GI50 [41] of the same compound?
Answer: 2150 nM

Question: And the TGI [41]?
Answer: > 85000 nM

Question: What about the GI50 [42] of the same compound?
Answer: 78.2 nM

Question: And the TGI [42]?
Answer: > 72400 nM

Question: What about the GI50 [43] of the same compound?
Answer: 3440 nM

Question: And the TGI [43]?
Answer: > 88500 nM

Question: What about the GI50 [44] of the same compound?
Answer: 70.4 nM

Question: What about the TGI [44] of the same compound?
Answer: > 60900 nM

Question: And the GI50 [45]?
Answer: 94.6 nM

Question: What about the GI50 [46] of the same compound?
Answer: 35.6 nM

Question: And the TGI [46]?
Answer: 155 nM

Question: What about the GI50 [47] of the same compound?
Answer: 199 nM

Question: And the TGI [47]?
Answer: 744 nM

Question: What about the GI50 [48] of the same compound?
Answer: 112 nM

Question: And the TGI [48]?
Answer: 3410 nM

Question: What about the GI50 [49] of the same compound?
Answer: 75.6 nM

Question: What about the TGI [49] of the same compound?
Answer: 181 nM

Question: What about the GI50 [50] of the same compound?
Answer: 182 nM

Question: What about the TGI [50] of the same compound?
Answer: > 68800 nM

Question: What about the GI50 [51] of the same compound?
Answer: 23300 nM

Question: And the TGI [51]?
Answer: > 100000 nM

Question: And the GI50 [52]?
Answer: 86 nM

Question: And the TGI [52]?
Answer: > 48500 nM

Question: What about the GI50 [53] of the same compound?
Answer: 210 nM

Question: And the TGI [53]?
Answer: 487 nM

Question: And the GI50 [54]?
Answer: 174 nM

Question: What about the TGI [54] of the same compound?
Answer: > 100000 nM

Question: And the GI50 [55]?
Answer: 133 nM

Question: And the TGI [55]?
Answer: > 52900 nM

Question: And the GI50 [56]?
Answer: 134 nM

Question: And the TGI [56]?
Answer: > 60800 nM

Question: And the GI50 [57]?
Answer: 74.9 nM

Question: What about the TGI [57] of the same compound?
Answer: 25700 nM
